Laboratory results from PubChem BioAssay (NCI).
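A five-concentration, 48-hour dose response in 96-well plates underlies each endpoint, interpolated linearly between surrounding concentrations. At the GI50, growth is halved. TGI: concentration producing complete growth inhibition.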

Tests used:
Assay in all cases: growth of human tumour cells (NCI), 48 h
[1] = test system: SK-MEL-5 melanoma
[2] = test system: DMS 114 small cell lung
[3] = test system: UO-31 renal
[4] = test system: SF-539 CNS
[5] = test system: SK-MEL-28 melanoma
[6] = test system: SK-MEL-2 melanoma
[7] = test system: SNB-19 CNS
[8] = test system: DMS 273 small cell lung
[9] = test system: SR leukemia
[10] = test system: BT-549 breast

Compound | TGI [1] [µM] | TGI [2] [µM] | TGI [3] [µM] | TGI [4] [µM] | TGI [5] [µM] | TGI [6] [µM] | TGI [7] [µM] | TGI [8] [µM] | TGI [9] [µM] | GI50 [1] [µM] | GI50 [3] [µM] | GI50 [4] [µM] | GI50 [5] [µM] | GI50 [10] [µM] | TGI [10] [µM] | GI50 [6] [µM] | GI50 [7] [µM] | GI50 [9] [µM]
COc1ccc(/C=C2\CCC(C)(CN(C)C)C2=O)cc1OC (configuration not stated) | > 100 | > 100 | > 100 | > 100 | > 100 | > 100 | > 100 | > 100 |  |  |  |  |  |  |  |  |  | 
O=C(CC1SC(=Nc2ccccc2Cl)NC1=O)Nc1ccc(Cl)cc1Cl (configuration not stated) | > 100 | > 100 | > 100 |  | > 100 | > 100 | > 100 |  |  |  |  |  |  |  |  |  |  | 
O=c1[nH]cc(F)c(=O)n1C1OC(CO)C(O)C1O (configuration not stated) | > 100 | > 100 | > 100 |  | > 100 | > 100 | > 100 | > 100 |  |  |  |  |  |  |  |  |  | 
O=C(O)/C=C/c1nc2ccccc2c(=O)o1 | > 100 | > 100 | > 100 | > 100 | > 100 | > 100 | > 100 | > 100 |  |  |  |  |  |  |  |  |  | 
NC(=O)NNC(=O)NC12CC3CC(CC(C3)C1)C2 | > 100 | > 100 | > 100 | > 100 | > 100 | > 100 | > 100 | > 100 |  |  |  |  |  |  |  |  |  | 
NC(=O)c1csc(C2OC(COP(=O)(O)CP(=O)(O)OCC3OC(n4cnc5c(N)ncnc54)C(O)C3O)C(O)C2O)n1 (configuration not stated) | > 100 | > 100 | > 100 | > 100 | > 100 | > 100 | > 100 | > 100 |  |  |  |  |  |  |  |  |  | 
O=S(=O)(c1cccc(N=C=S)c1)c1cccc(N=C=S)c1 | 36.3 | 29.6 | 75.1 |  | 33.6 | 33.8 | > 100 | 40.6 |  |  |  |  |  |  |  |  |  | 
Cc1cc(C)nc(NS(=O)(=O)c2ccc(Nc3c4ccccc4nc4c(C(=O)Nc5ccc(S(=O)(=O)N=C(N)N)cc5)cccc34)cc2)n1 | > 100 | > 100 | > 100 | > 100 | > 100 | > 100 | > 100 | > 100 |  |  |  |  |  |  |  |  |  | 
COc1ccc(CCC2c3cc(OC)c(OC)cc3CCN2C)cc1OC (configuration not stated) | > 100 | > 100 | > 100 | > 100 | > 100 | > 100 | > 100 |  | > 100 |  |  |  |  |  |  |  |  | 
CC1OC(OC2C(O)CC(OC3C(O)CC(OC4CCC5(C)C(CCC6C5CC(O)C5(C)C(C7=CC(=O)OC7)CCC65O)C4)OC3C)OC2C)CC(O)C1O (configuration not stated) | 0.129 |  | 0.148 | 0.15 | 0.302 | 0.346 | 0.238 |  | 0.0897 | 0.0371 | 0.0377 | 0.0427 | 0.152 | 0.0309 | 0.101 | 0.128 | 0.113 | 0.0244
Oc1c(I)cc(I)c2cccnc12 | 16.5 |  | 21.4 | 23.5 | > 100 | 52.4 | 22.5 |  | > 100 | 2.4 | 2.17 | 4.16 | 13.2 | 0.833 | 33.9 | 8.82 | 3.33 | 5.75
COc1cc2nc(-c3cc(F)ccc3O)nc(N[C@@H]3CNC[C@H]3C(C)(C)O)c2cc1OC | 3.15 |  | 3.21 | 3 | 3.41 | 3.12 | 4.02 |  | 3.62 | 1.74 | 1.56 | 1.55 | 1.86 | 1.64 | 3.09 | 1.59 | 1.91 | 1.27
COc1ccc(N(CC(=O)NCCC[Te]c2ccccc2)C(=O)CNC(=O)OC(C)(C)C)cc1 | 9.13 |  | 9.04 | 4.84 | 10.1 | 6.77 | 9.64 |  | 7.75 | 3.13 | 2.38 | 2.14 | 3.07 | 1.68 | 4.86 | 2.99 | 0.875 | 1.66
Oc1cccc2ccc(N/N=C/c3cc(CN4CCOCC4)c(O)c4ncccc34)nc12 | 0.0375 |  | 1.24 | 1.64 | 6.19 | 0.26 | 12.6 |  | 4.38 | 0.0124 | 0.0124 | 0.0352 | 0.0634 | 0.0363 | 2.78 | < 0.0181 | 0.0169 | 0.0332
O=C(CC1(O)C(=O)N(Cc2ccccc2)c2ccccc21)c1ccc(C(=O)NCC2CCC3(CC2)OOC2(CCCCC2)OO3)cc1 (configuration not stated) | 3.14 |  | 0.338 | 1.04 | 26.8 | 5.24 | 51.8 |  | 1.66 | 1.66 | 0.176 | 0.399 | 4.96 | 1.88 | 4.03 | 2.28 | 4.67 | 0.344
COCOCC/C=C/C=O | > 100 | > 100 | > 100 | > 100 | > 100 | > 100 | > 100 |  | > 100 |  |  |  |  |  |  |  |  | 
Cc1cc(C#Cc2ccc(C(C)(C)C)cc2)ccc1-n1c(/C=C/c2ccc(O)cc2O)nc2ccccc2c1=O | 3.98 |  | 15.5 | 16.5 | 7.27 | 13.4 | 22.5 |  | 6.49 | 1.77 | 2.63 | 4.37 | 2.42 | 8.6 | 33.1 | 3.52 | 7.9 | 2.45
O=C(O)Cc1cccnc1 | > 100 |  | > 100 | > 100 | > 100 | > 100 | > 100 |  | > 100 |  |  |  |  |  | > 100 |  |  | 
Cc1cccc2c3c(sc12)C(c1ccc(Cl)cc1)C(C#N)=C(N)O3 (configuration not stated) | 4.11 |  | 16.2 | 1.14 | 20.7 | 21 | 12.6 |  | > 33.9 | 0.467 | 0.664 | 0.299 | 3.69 | 0.98 | 6.9 | 1.41 | 0.452 | 0.452
